Here are results for one compound from patent US12329930B2, “Subarachnoid fluid management method and system” (EnClear Therapies, Inc., priority 2020, dated 2025).

The data set in a line: Administration of methotrexate to a sheep via the CSF circuit; drug concentration measured with LC/MS in CSF, spinal cord and brain regions. The data set is classed as in vivo. On the procedure: The inventors administered methotrexate to sheep using illustrative embodiments. An outline of the study is depicted by FIGS. 16A-16C. A sheep used for this experiment received the CSF circuit 10 of illustrative embodiments. Circulation was started at the same time that methotrexate was infused. Methotrexate was infused at a gradual rate of 2 mLs over 2 minutes and then recirculation from lumbar to ventricle was started at a rate of 0.2 mLs/min. Circulation continued after drug infusion was stopped for […]. At zero to three hours, the circulation rate was at 0.1 mL/min and from four to six hours, circulation was at 0.3 mL/min. The dose of methotrexate infused was 12 mg. Drug concentration was measured with LC/MS (liquid chromatography with the mass analysis capabilities of mass spectrometry) in the CSF, spinal cord, and multiple brain regions.
CSF levels of methotrexate were analyzed over time.
The x-axis of this graph is […].

In the case of `CN(Cc1cnc2nc(N)nc(N)c2n1)c1ccc(C(=O)N[C@@H](CCC(=O)O)C(=O)O)cc1` [methotrexate], the “CSF levels of methotrexate, lumbar region” value (12 mg infused 2 mLs over 2 minutes, lumbar region where drug was infused, lumbar to ventricle circulation, LC/MS) is reported as “very high”. The “CSF levels of methotrexate over time, lumbar region” value (12 mg, lumbar CSF samples, time course, LC/MS) is “a decline over time was measured except for an increase at 5 hours and then a subsequent decline”. Further, the “methotrexate levels in brain and spinal cord tissue” value (12 mg, samples from twelve brain regions homogenized, all areas of the brain and spinal cord) is recorded as “good levels”. Where the note is “12 mg, ventricular CSF samples, initial time points, LC/MS”, the “CSF levels of methotrexate, ventricular samples, initially” value is “very low”. In addition, the “CSF levels of methotrexate over time, ventricular samples” value (12 mg, ventricular CSF samples, later time points, LC/MS) was “increased at 4 and 5 hours, before declining to a similar level as the lumbar samples”.
